Experimental data from BindingDB's records for doi:10.1074/jbc.M110.206193 (Takeda Pharmaceutical, 2011).

How the values were obtained:
[1] = target: Epidermal growth factor receptor (Homo sapiens, UniProt P00533); test: Enzyme Assay; conditions: pH 7.5
Method: (§1) The EGFR, HER2 and HER4 kinase assay were performed using radiolabeled [gamma-32P] ATP from GE Healthcare.

[2] = target: Receptor tyrosine-protein kinase erbB-4 (Homo sapiens, UniProt Q15303); test: Enzyme Assay; conditions: pH 7.5
Method: as §1

Sequence of Receptor tyrosine-protein kinase erbB-4 (Q15303 whole entry): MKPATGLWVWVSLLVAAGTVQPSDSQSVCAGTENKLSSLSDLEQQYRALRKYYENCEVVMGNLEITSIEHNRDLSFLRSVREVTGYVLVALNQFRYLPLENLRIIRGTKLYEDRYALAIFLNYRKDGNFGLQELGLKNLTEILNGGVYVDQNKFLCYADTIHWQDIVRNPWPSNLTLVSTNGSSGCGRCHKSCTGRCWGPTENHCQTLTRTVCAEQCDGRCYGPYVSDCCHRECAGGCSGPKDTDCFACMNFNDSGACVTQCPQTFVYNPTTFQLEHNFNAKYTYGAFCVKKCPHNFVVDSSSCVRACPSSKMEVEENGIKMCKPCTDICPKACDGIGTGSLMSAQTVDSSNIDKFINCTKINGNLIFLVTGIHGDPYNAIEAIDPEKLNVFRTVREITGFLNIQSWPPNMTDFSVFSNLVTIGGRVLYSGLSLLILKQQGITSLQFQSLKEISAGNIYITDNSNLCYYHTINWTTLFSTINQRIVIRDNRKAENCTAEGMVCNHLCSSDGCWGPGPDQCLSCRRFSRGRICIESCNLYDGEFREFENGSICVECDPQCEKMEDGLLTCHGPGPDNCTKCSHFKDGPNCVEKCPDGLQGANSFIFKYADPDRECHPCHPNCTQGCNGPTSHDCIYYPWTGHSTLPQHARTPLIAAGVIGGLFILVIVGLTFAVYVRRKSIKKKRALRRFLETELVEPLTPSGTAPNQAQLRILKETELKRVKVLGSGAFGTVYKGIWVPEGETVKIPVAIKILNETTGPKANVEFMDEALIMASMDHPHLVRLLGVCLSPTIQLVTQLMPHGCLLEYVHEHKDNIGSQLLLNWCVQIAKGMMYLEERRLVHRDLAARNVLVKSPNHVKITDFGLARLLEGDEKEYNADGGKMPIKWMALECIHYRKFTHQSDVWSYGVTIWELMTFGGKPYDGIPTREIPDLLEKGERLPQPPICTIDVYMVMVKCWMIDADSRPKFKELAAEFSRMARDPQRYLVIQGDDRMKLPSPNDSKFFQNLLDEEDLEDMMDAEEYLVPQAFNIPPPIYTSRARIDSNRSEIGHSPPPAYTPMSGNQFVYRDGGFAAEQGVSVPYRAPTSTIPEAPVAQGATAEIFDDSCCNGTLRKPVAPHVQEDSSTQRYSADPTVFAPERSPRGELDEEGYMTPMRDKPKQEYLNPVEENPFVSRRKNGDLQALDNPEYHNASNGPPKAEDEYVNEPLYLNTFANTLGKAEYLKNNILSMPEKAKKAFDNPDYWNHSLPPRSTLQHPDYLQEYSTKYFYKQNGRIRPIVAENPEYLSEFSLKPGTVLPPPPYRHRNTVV
Sequence of Epidermal growth factor receptor (P00533 whole entry): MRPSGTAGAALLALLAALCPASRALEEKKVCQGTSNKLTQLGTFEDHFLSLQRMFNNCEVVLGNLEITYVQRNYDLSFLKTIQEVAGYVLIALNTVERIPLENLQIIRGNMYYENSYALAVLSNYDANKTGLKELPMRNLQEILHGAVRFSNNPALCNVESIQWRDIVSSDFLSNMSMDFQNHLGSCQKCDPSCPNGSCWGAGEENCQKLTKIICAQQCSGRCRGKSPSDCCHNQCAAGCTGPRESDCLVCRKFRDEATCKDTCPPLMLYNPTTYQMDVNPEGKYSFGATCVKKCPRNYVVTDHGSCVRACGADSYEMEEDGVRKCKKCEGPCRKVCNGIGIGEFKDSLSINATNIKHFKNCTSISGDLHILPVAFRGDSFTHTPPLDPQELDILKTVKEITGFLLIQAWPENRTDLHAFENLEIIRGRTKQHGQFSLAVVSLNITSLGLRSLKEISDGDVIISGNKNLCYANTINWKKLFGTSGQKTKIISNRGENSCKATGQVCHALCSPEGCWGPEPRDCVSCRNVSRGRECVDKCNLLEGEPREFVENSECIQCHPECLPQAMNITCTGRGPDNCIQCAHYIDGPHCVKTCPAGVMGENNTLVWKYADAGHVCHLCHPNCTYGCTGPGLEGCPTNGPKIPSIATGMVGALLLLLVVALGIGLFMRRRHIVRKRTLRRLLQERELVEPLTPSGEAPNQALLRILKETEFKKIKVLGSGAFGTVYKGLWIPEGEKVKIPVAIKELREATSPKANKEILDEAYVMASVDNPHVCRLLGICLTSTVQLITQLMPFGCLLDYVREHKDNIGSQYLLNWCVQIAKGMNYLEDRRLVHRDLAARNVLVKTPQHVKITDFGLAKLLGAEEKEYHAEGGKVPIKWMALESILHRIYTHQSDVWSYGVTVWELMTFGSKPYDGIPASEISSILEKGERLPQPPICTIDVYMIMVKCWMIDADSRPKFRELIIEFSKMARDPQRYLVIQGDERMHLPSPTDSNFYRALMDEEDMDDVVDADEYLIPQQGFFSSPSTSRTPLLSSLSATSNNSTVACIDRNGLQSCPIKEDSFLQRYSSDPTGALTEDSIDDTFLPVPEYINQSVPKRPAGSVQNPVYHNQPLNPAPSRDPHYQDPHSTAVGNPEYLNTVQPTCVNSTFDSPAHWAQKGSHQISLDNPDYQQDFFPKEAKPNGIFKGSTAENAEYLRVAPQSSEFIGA

IC50 [1]: 429 nM
IC50 [2]: > 10000 nM
SMILES: OCCOCn1ccc2ncnc(Nc3cnc(Oc4cccc(C(F)(F)F)c4)c(Cl)c3)c21 [SYR127063]
